The values that follow come from ChEMBL document CHEMBL1177877, “Synthesis and in vitro evaluation of substituted pyrimido[5,4-d]pyrimidines as a novel class of anti-Mycobacterium tuberculosis agents” (Eur J Med Chem, 2010).

What is called IC50 is the point on the concentration scale where inhibition reaches its midpoint. As a reminder, the IC90 is the point of the concentration-response curve where the effect stands at 90%. In general, EC50 refers to the concentration needed to bring the measured effect to its halfway point.

Converted amounts (≈) assume the structure as drawn.

Assay [1] has as its system Mycobacterium tuberculosis. In words: Antimycobacterial activity against Mycobacterium tuberculosis H37Rv. The class given is functional, organism-based.
In a further assay the test system is Vero. Nature of the assay: Cytotoxicity against african green monkey Vero cells. The class given is cell-based. Conditions: Chlorocebus sabaeus.
Assay [2] is described as follows: Selectivity index, EC50 for against african green monkey Vero cells to IC50 for Mycobacterium tuberculosis H37Rv. The class given is functional.

Regarding `N=c1c2ncnc(Nc3ccc(F)cc3)c2ncn1NC(=O)c1ccncc1`, in assay [1], the IC50 was found to be 0.91 µg/mL (≈ 2.42 µM) and the IC90 was found to be 9.12 µM. This compound also showed a 50% effective concentration (EC50) in the assay on Vero of 1.53 µg/mL (≈ 4.07 µM). Moreover, the Ratio in assay [2] is recorded as 0.43.
Turning to `CC(=O)Nn1cnc2c(Nc3ccccc3)ncnc2c1=N`, in assay [1], the IC50 was determined as 44.9 µg/mL (≈ 152 µM) and the IC90 was > 314 µM.
As to `COc1ccc(Nc2ncnc3c(=N)n(NC(=O)c4ccncc4)cnc23)cc1`, in assay [1], the midpoint of inhibition, the IC50, lay at 1.59 µg/mL (≈ 4.09 µM) and the 90% effect level (IC90) was put at 9.49 µM. Further, the response in the assay on Vero was half-maximal at 1.15 µg/mL (≈ 2.96 µM) (EC50). In assay [2], the Ratio is 0.27.
In assay [1], `CC(=O)Nn1cnc2c(Nc3ccc(F)cc3)ncnc2c1=N` came in with a concentration for half-maximal inhibition (IC50) of 18.7 µg/mL (≈ 59.7 µM) and an IC90 of 91.4 µM.
As for `N=c1c2ncnc(Nc3ccccc3)c2ncn1NC(=O)c1ccco1`, in assay [1], the midpoint of inhibition, the IC50, lay at 3.16 µg/mL (≈ 9.1 µM) and the IC90 turned out to be 14 µM.
On to `COc1ccc(Nc2ncnc3c(=N)n(NC(=O)c4ccccc4)cnc23)cc1`, for which, in assay [1], half-maximal inhibition (IC50) required 4.11 µg/mL (≈ 10.6 µM) and the IC90 was determined as 23.4 µM. This compound also yielded an EC50 in the assay with Vero of 2.12 µg/mL (≈ 5.47 µM). The Ratio in assay [2] came to 0.23.
For `COc1ccc(Nc2ncnc3c(=N)n(NC(C)=O)cnc23)cc1`, in assay [1], the IC50 turned out to be 46.5 µg/mL (≈ 143 µM) and the IC90 was > 298 µM.
The like results for `N=c1c2ncnc(Nc3ccc(F)cc3)c2ncn1NC(=O)c1ccco1` were, in that order, 2.17 µg/mL (≈ 5.94 µM) and 9.77 µM.
In assay [1], `N=c1c2ncnc(Nc3ccccc3)c2ncn1NC(=O)c1ccccc1` came in with an IC50 of 3.65 µg/mL (≈ 10.2 µM) and an IC90 of 17.4 µM. This compound also came in with an EC50 with Vero of 2.35 µg/mL (≈ 6.58 µM). Moreover, the Ratio in assay [2] is 0.38.
`CC(=O)Nn1cnc2c(Nc3ccc(C#N)cc3)ncnc2c1=N`: in assay [1], the midpoint of inhibition, the IC50, lay at 42.1 µg/mL (≈ 131 µM) and the IC90 was > 311 µM.
`N#Cc1ccc(Nc2ncnc3c(=N)n(NC(=O)c4ccncc4)cnc23)cc1`: in assay [1], the IC50 is 17.2 µg/mL (≈ 44.9 µM) and the concentration for an effect of 90% (IC90) was > 240 µM.
As for `N#Cc1ccc(Nc2ncnc3c(=N)n(NC(=O)c4ccccc4)cnc23)cc1`, in assay [1], the IC50 turned out to be 2.47 µg/mL (≈ 6.46 µM) and the 90% effect level (IC90) was put at 36.1 µM.
In assay [1], `N=c1c2ncnc(Nc3ccccc3)c2ncn1NC(=O)c1ccncc1` showed an IC50 of 4.3 µg/mL (≈ 12 µM) and an IC90 of 21 µM. The compound also gave an EC50 in the assay with Vero of 4.37 µg/mL (≈ 12.2 µM). For the same compound, the Ratio in assay [2] is recorded as 0.57.
On to `COc1ccc(Nc2ncnc3c(=N)n(NC(=O)c4ccco4)cnc23)cc1`, for which, in assay [1], the IC50 amounted to 3.56 µg/mL (≈ 9.43 µM) and the 90% effect level (IC90) was put at 261 µM.
On to `N=c1c2ncnc(Nc3ccc(F)cc3)c2ncn1NC(=O)c1ccccc1`, for which, in assay [1], the IC50 was determined as 2.92 µg/mL (≈ 7.78 µM) and it took 13.5 µM to reach the 90% level (IC90). The same compound had an EC50 in the assay with Vero of 3.05 µg/mL (≈ 8.13 µM). Besides, in assay [2], the Ratio was determined as 0.6.
